Test results reported in patent publication US20100204340A1 (priority 2009, published 2010).
Each block holds one compound with its values, some of them ahead of it.

How the values were obtained:
[1] = test system: 3T3-L1 mouse adipocyte cells; assay: Adipogenesis inhibitory assay (Oil Red-O staining); format: cell-based; conditions: for IC50: Mus musculus, 3T3-L1, Oil Red-O, OD 492 nm, read-out: IC50, inhibition of adipogenesis; for Adipogenesis inhibitory potential relative to Resveratrol: times more effective / superior than resveratrol
Method: A common assay to measure adipocyte differentiation in cell culture is with the dye Oil Red-O, which is a lipid-soluble red dye. Since terminal differentiation of adipocytes is accompanied by the accumulation of great amounts of lipids in large cytoplasmic vesicles, a strong, bright, staining of the cytoplasm with this dye is a reliable indicator of adipocyte differentiation.
3T3-L1 mouse adipocyte cells are seeded at a density of 5000 cell/200 μl of adipocyte induction medium in a 96 well plate. After 48 hrs varying concentrations of the sample are added. After 72 hrs, the medium is changed to adipocyte progression medium along with the sample. The medium is similarly changed after another 48 hours. The plates are washed gently after 48 hrs with 100 μl of PBS. 100 μl of 10% formalin is used to fix the cells for 30 min keeping at RT. The cells are then washed twice with 60% isopropanol gently. 100 μl of clear Oil red O stain is added to the wells & kept for staining for 1 hr. The cells are then washed with 70% Ethanol twice, once with PBS and air dried. Then 100 μl of 4% triton×100 in isopropanol is added to all the wells covered tightly & kept it in a shaker for 20 min at […]. The OD reading is taken at 492 nm in microplate reader.
The results are expressed as IC50 values using Graphpad prism software. The percentage of inhibition of adipogenesis is calculated as follows,
Where C-absorbance due to adipogenesis in untreated cells T-absorbance due to adipogenesis in sample treated cells
Note: IC50 is the concentration required for 50% inhibition of adipogenesis. Lower IC50 indicates better efficacy.

SIRT1 polypeptide = molecular target: T1, SIRT1 polypeptide (Homo sapiens, UniProt Q96EB6); assay: SIRT 1 Direct fluorescent Screening Assay kit (Cayman); format: biochemical; conditions: read-out: Percentage SIRT 1 modulation; for activation at 1 µg/mL: 1 μg/ml; for activation at 10 µg/mL: 10 μg/ml
T1 construct: purchased Cayman Chemical Company 10010401
T1 sequence (Q96EB6 1-747): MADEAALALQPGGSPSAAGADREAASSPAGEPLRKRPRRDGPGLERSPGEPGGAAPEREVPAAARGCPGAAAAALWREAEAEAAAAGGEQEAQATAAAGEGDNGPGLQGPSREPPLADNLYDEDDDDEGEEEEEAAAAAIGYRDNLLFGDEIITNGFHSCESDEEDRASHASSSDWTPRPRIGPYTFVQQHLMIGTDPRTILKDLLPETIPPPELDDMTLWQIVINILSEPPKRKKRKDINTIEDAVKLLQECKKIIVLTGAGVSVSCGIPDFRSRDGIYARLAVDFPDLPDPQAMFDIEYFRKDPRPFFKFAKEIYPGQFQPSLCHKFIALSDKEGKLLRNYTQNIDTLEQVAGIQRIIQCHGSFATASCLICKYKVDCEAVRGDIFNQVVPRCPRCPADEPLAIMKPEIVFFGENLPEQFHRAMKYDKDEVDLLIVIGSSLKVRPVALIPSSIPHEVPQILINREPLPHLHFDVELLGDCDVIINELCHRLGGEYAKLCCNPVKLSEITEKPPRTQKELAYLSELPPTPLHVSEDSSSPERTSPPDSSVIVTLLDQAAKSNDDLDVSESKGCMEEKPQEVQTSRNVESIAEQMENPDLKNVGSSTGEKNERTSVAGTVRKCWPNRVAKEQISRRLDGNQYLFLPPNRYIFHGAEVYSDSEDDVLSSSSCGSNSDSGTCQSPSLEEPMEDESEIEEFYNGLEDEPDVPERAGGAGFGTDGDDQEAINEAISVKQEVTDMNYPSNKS
Method: SIRT-1 activation/inhibition was measured using the SIRT 1 Direct fluorescent Screening Assay kit (Catalog No. 10010401) and instructions provided therein of Cayman Chemical Company, 1180 East Ellsworth Road, Ann Arbor, Mich. 48108 USA. (http://www.caymanchem.com/pdfs/10010401.pdf)

[2] = test system: Propionibacterium acnes ATCC 11827; assay: Disc diffusion method, zone of inhibition; format: cell-based
Excerpt: Method: Disc diffusion method was done to study Minimum inhibitory concentration (MIC).
Materials • 1. Propionibacterium acnes ATCC 11827 • 2. Physiological saline or Buffered peptone water (BPW). • 3. Reinforced clostridium medium (RCM) Hi-media • 4. Reinforced clostridium agar (RCA) Hi-media • 5. Anaerobic chamber. • 6. Gassing manifold Nitrogen, mixed gases. • 7. Spectrophotometer (600 nm to 625 nm). • 8. Sterile Petri plates (150 mm×90 mm). • 9. Sterile micro pipettes and sterile micro tips. • 10. Sterile disc 6 mm. • 11. Samples tested: Resveratrol (Batch No.: C81173) and 3-Hydroxypsterostilbene (Batch No.: P80096)
The chamber used in the study is of COY LABORATORY USA model 8301-230, 3 ft polymer. The anaerobic chamber consists of a main chamber where in all the operations and incubation of the culture are carried out and a transfer chamber which is meant for taking the materials in and out of the equipment. The main chamber is provided with a heated fan box in order to maintain the required temperature (37° C.) and to circulate the air in the chamber. A catalyst stakpak is fixed to this fan box which consists of palladium catalyst, which is meant to convert oxygen to water molecules by reacting with hydrogen molecules. The anaerobic condition in the chamber for this is maintained by initialization with Nitrogen gas and then by the Mixture gas of N2+H2+CO2 in the proportion 80:10:10. Two gas tank arrangements have been done where only N2 is connected to the transfer chamber.
To carry out the antimicrobial activity of the products against P.acnes the organism was first cultured in the anaerobic conditions. Culture was inoculated into pre-sterile reinforced Clostridium medium (RCM) and incubated at anaerobic condition for 24 hrs. 24 hr to 48 hrs culture at Optical Density @625 nm was determined 0.632 (1:2 dilution) 4.0 Macfarland standards.
30 ml of sterilized RCM was poured into the pre-sterile Petri plates inside the chamber and allowed to solidify. The culture was inoculated (0.2 ml/plate) and spread evenly. After 30 minutes, antibacterial sterile discs (6 mm) were dispensed. […] 10 μl of the prepared sample and controls were dispensed onto the discs. The plates were incubated inside the anaerobic chamber at 37° C. for 24 to 48 hours duration.

[3] = sample 5.0 % (w/v) in DMSO, 10 μl per 6 mm disc

SMILES: COc1cc(/C=C/c2ccc(O)c(O)c2)cc(OC)c1 [3-hydroxypterostilbene]
- IC50 [1]: 0.00483 µM
- Adipogenesis inhibitory potential relative to Resveratrol [1]: about 5000 times
- Adipogenesis inhibitory potential relative to Resveratrol ([1]; listed as 3,5-dimethoxy-3,4′-dihydroxystilbene): 5000 times
- activation at 1 µg/mL (SIRT1 polypeptide): 224%
- activation at 10 µg/mL (SIRT1 polypeptide): 669%
- Zone of inhibition ([2]; sample 0.078 % (w/v) in DMSO): No zone
- Zone of inhibition ([2]; sample 0.156 % (w/v) in DMSO): No zone
- Zone of inhibition ([2]; sample 0.31 % (w/v) in DMSO (3.12 mg/ml), listed as 3-Hydroxy Pterostilbene): 10.0 mm
- Zone of inhibition ([2]; sample 0.31 % (w/v) in DMSO (3.12 mg/ml), listed as 3-Hydroxy pterostilbene): 10 mm
- Zone of inhibition ([2]; sample 0.625 % (w/v) in DMSO): 13.0 mm
- Zone of inhibition ([2]; sample 1.25 % (w/v) in DMSO): 15.0 mm
- Zone of inhibition ([2]; sample 2.5 % (w/v) in DMSO): 17.0 mm
- Zone of inhibition [2, 3]: 18.0 mm

- activation at 1 µg/mL (SIRT1 polypeptide): 138%
- activation at 10 µg/mL (SIRT1 polypeptide): 291%
SMILES: Oc1ccc(/C=C/c2cc(O)cc(O)c2)cc1 [Resveratrol, 3,4′,5-trihydroxy-trans-stilbene]
- IC50 [1]: 25 µM
- Concentration required to produce a zone of inhibition of 10 mm ([2]; disc diffusion, 0.625% w/v): 6.25 mg/mL
- Zone of inhibition ([2]; sample 0.078 % (w/v) in DMSO): No zone
- Zone of inhibition ([2]; sample 0.156 % (w/v) in DMSO): No zone
- Zone of inhibition ([2]; sample 0.31 % (w/v) in DMSO (3.12 mg/ml)): No zone
- Zone of inhibition ([2]; sample 0.625 % (w/v) in DMSO): 10.0 mm
- Zone of inhibition ([2]; sample 1.25 % (w/v) in DMSO): 12.0 mm
- Zone of inhibition ([2]; sample 2.5 % (w/v) in DMSO): 13.0 mm
- Zone of inhibition [2, 3]: 13.0 mm
